Columns and labels:
[1] = assay type: in vitro ADME, mouse
Procedure: Incubation: The metabolic stability assay was performed by incubating each test compound in human liver microsomes at 37° C. and a protein concentration of 0.4 mg/mL. The metabolic reaction was initiated by the addition of an NADPH-regenerating system and quenched at various time points over a 60 minute incubation period by the addition of acetonitrile containing diazepam as internal standard. Control samples (containing no NADPH) were included (and quenched at 2, 30 and 60 minutes) to monitor for potential degradation in the absence of cofactor. The human liver microsomes used in this experiment were supplied by XenoTech, lot #1410230. Microsomal incubations were performed at a substrate concentration of 1 μM. Data analysis: Species scaling factors from Ring et al. (2011) JPharmSci, 100:4090-4110 were used to convert the in vitro CLint (μL/min/mg) to an in vivo CLint(mL/min/kg). Hepatic blood clearance and the corresponding hepatic extraction ratio (EH) were calculated using the well stirred model of hepatic extraction in each species, according to the “in vitro T1/2” approach described in Obach (1999) DrugMetab. Dispos. 27:1350-1359. The EH was then used to classify compounds as low(<0.3), intermediate (0.3-0.7), high (0.7-0.95) or very high (>0.95) extraction compounds. Predicted in vivo clearance values have not been corrected for microsomal or plasma protein binding. Species scaling calculations are based on two assumptions: 1) NADPH-dependent oxidative metabolism predominates over other metabolic routes (i.e. direct conjugative metabolism, reduction, hydrolysis, etc.), and; 2) rates of metabolism and enzyme activities in vitro are truly reflective of those that exist in vivo. […] [table]

[2] = In vivo determination of whole blood-to-plasma ratio; set-up: species or system male C57BL/6 mice; settings: mouse blood, 15 min and 1 h post-dose
Procedure: Blood was collected from mice at 15 min and 1 h post-dose of each compound for the purposes of determining the whole blood-to-plasma (B/P) ratio. […] No adverse reactions or compound-related side effects observed in any mice during the 24 h sampling period after dosing any of the compounds. Plasma samples were also taken from 2 mice that were not administered test compound for use as analytical tool.
Analysis of B/P partitioning samples was conducted similarly and quantified against calibration standards samples prepared using a 1:1 v/v mixture of blank mouse blood and plasma. The matrix matched B/P partitioning samples and standards were processed using protein precipitation with acetonitrile as described above.
In Vivo Determination of Whole Blood-to-Plasma Ration
Blood was collected via cardiac puncture (whilst under gaseous isoflurane anaesthesia) into tubes containing heparin and stabilisation cocktail. The haematocrit was determined via centrifugation (13000×g for 4 min using a Clemets® Microhematocrit centrifuge and Safecap® Plain Self-sealing Mylar Wrapped capillary tubes), and values ranged from 38% to 40% for PF670462 and 38% to 44% for ZH3-138. […]
The B/P ratio was obtained by dividing the average measured concentration in blood by the average concentration measured in plasma following centrifugation of whole blood.

[3] = system: TGF-β-induced IL-11 in primary human parenchymal fibroblast cells (pFbs); test: Human parenchymal fibroblast cell assay, TGF-β-induced IL-11 (ELISA); assay type: cell-based; settings: compounds 0.1-10 μM 30 min prior to TGF-β1, 16-24 hours, 4.00* is assigned to compounds that failed to cause 50% or more inhibition at 10 µM, read-out: pIC50 IL-11 suppression (converted)
Procedure: Human Parenchymal Fibroblast Cell Assay
Primary human parenchymal fibroblast cells (pFbs) were cultured from parenchyma of lung resection specimens and from non-transplanted lungs of donors without chronic respiratory disease. pFbs were passaged in Dulbecco's Modified Eagle's Media (DMEM) containing 10% (v/v) heat-inactivated fetal calf serum (FCS), 15 mM HEPES, 0.2% (v/v) sodium bicarbonate, 2 mM L-glutamine, 1% (v/v) non-essential amino acids, 1% (v/v) sodium pyruvate, 2.5 μg/mL amphotericin, 5 IU/mL penicillin and 50 μg/mL streptomycin. In some experiments the human lung fibroblast cell line, MRC5 (sourced from ATTC) was used as indicated. The MRC5 line was maintained under the same conditions as described for the pFb.
Prior to experimentation, pFb were incubated in serum-free DMEM containing 0.25% bovine serum albumin (BSA) and insulin-transferrin-selenium-containing supplement (Monomed A; CSL, Parkville, Melbourne, Australia). The cells were incubated with small molecular CK1δ inhibitors (0.1-10 μM) for 30 min prior to […] TGF-β1 (R&D Systems, Minneapolis, Minn.) and the incubation continued for 16-24 hours prior to harvest of supernatant for detection of immunoreactive IL-11. Stock solutions were made as 10 mM in 100% DMSO and diluted to the required concentration in medium containing 0.1% DMSO (final concentration).
Supernatants were collected for measurement of IL-11 (R&D DuoSet, DY218) by ELISA following the manufacturers' instructions. Generally, capture antibodies were initially diluted to the recommended concentrations using PBS buffer, and then used to coat the wells of 96-well microplates (Greiner, #655061) by adding 50 μL/well and incubated overnight at room temperature. Next day, solutions were discarded and wells were washed 3 times with wash buffer (PBS containing 0.1% (v/v) Tween-20) prior to the addition of 200 μL of blocking solution (PBS containing 1% (v/v) BSA) for 1 hour to block non-specific sites. Plates were then washed 3 times with wash buffer and 50 μL of samples or standards were then added to wells and incubated for 2 hours at room temperature. After the incubation, plates were washed 3 times with wash buffer and 50 μL of detection antibodies were added to wells and incubated for 2 hours at room temperature. Plates were then washed 3 times before adding streptavidin-conjugated horseradish peroxidase (at the recommended concentrations) for 45 min. Plates were then washed 5 times with wash buffer and 100 μL TMB substrate solution (equal parts A and B, BD Biosciences) was added to each well until sufficient signals emerged. The reactions were inactivated by adding 100 μL sulphuric acid (2M H2SO4). The absorbance was measured at 450 nm using the Multiskan Ascent® plate reader. The absorbance of the cytokine standards was fitted to a logistic equation, allowing the concentrations of cytokine in samples to be determined.
PIC50 values (the negative log of the concentration suppressing IL-11 level by 50%) for inhibition of TGF-β-induced IL-11 were interpolated from the linear regression of log concentration small molecule versus IL-11 level (Table 4 and FIG. 2).

[4] = biological target: T1, human recombinant Casein kinase 18 (CK1δ) (Homo sapiens, UniProt P48730); test: Kinase inhibition assay (HotSpot, Reaction Biology Corp), CK1δ; assay type: biochemical; settings: 10 μM ATP, 10-dose IC50 mode; read-out: Compound IC50 (M) CK1δ
T1 construct: purchased Reaction Biology Corp
T1 sequence (P48730 whole entry): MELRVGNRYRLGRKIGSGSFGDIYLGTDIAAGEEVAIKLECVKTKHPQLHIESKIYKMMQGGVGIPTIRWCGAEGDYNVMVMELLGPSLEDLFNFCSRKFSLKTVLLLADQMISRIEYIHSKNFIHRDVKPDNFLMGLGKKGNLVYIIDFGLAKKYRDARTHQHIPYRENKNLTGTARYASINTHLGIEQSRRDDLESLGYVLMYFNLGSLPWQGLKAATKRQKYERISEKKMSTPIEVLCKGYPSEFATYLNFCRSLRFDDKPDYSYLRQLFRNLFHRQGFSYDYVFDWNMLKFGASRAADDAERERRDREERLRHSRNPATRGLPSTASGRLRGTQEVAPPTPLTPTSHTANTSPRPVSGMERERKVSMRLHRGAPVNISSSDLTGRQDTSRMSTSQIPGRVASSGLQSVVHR

## Nc1nccc(-c2c(-c3ccc(F)cc3)ncn2C2CCCCC2)n1 [PF670462, reference compound]
[1]
  Predicted CLblood: 6.48 L/h/kg
  Predicted CLint, in vivo: 66.3 L/h/kg
  Predicted EH (hepatic extraction ratio): 0.90
[1]; mouse, microsomes
  CLint, in vitro: 428 μL/min/mg protein
  T1/2: 4 min
[2]
  apparent whole blood-to-plasma ratio (B/P): 1.0

## Nc1nccc(-c2c(-c3ccc(F)cc3)ncn2C2CCC(F)(F)CC2)n1 [ZH3-138, 4-(1-(4,4-Difluorocyclohexyl)-4-(4-fluorophenyl)-1H-imidazol-5-yl)pyrimidin-2-amine]
[3]
  IC50: 20 µM
[2]; male, C57BL/6, whole blood and plasma, read-out: apparent whole blood-to-plasma ratio (B/P)
  blood plasma ratio: 0.91
[4]
  IC50: 9.32e-09 M
